Measurements taken from article PMC4450297, “Screening Active Compounds from Garcinia Species Native to China Reveals Novel Compounds Targeting the STAT/JAK Signaling Pathway” (BioMed Research International, 2015).

Tested on: J82
Assay: Cell panel screen (CellTiter-Glo)
Type: cell-based, human
Conditions: J82 (Urinary bladder), 20 micromolar, 72 hrs
Method in brief: (§1)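 Compound, diluted from DMSO into culture medium, was added at a final 20 μM; control wells got equal DMSO. After 72 h, luminescent ATP signal was recorded and converted to percent inhibition.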

Row | SMILES | Percent Inhibition
1 | CC(C)=CCc1c2c(c3oc4c(O)c(O)ccc4c(=O)c3c1O)C=CC(C)(C)O2 [Compound C-6] | 13%

Tested on: HEC-1-A
Assay: Cell panel screen (CellTiter-Glo)
Type: cell-based, human
Conditions: HEC-1-A (Uterus), 20 micromolar, 72 hrs
Method in brief: as §1

Row | SMILES | Percent Inhibition
2 | CC(C)=CCc1c2c(c3oc4c(O)c(O)ccc4c(=O)c3c1O)C=CC(C)(C)O2 [Compound C-6] | 1%

Tested on: T98G
Assay: Cell panel screen (CellTiter-Glo)
Type: cell-based, human
Conditions: T98G (Brain), 20 micromolar, 72 hrs
Method in brief: as §1

Row | SMILES | Percent Inhibition
3 | CC(C)=CCc1c2c(c3oc4c(O)c(O)ccc4c(=O)c3c1O)C=CC(C)(C)O2 [Compound C-6] | 11%

Tested on: ChaGo-K-1
Assay: Cell panel screen (CellTiter-Glo)
Type: cell-based, human
Conditions: ChaGo-K-1 (Lung), 20 micromolar, 72 hrs
Method in brief: as §1

Row | SMILES | Percent Inhibition
4 | CC(C)=CCc1c2c(c3oc4c(O)c(O)ccc4c(=O)c3c1O)C=CC(C)(C)O2 [Compound C-6] | 7%

Tested on: A498
Assay: Cell panel screen (CellTiter-Glo)
Type: cell-based, human
Conditions: A498 (listed under Lung), 20 micromolar, 72 hrs
Method in brief: as §1

Row | SMILES | Percent Inhibition
5 | CC(C)=CCc1c2c(c3oc4c(O)c(O)ccc4c(=O)c3c1O)C=CC(C)(C)O2 [Compound C-6] | 10%

Tested on: HCC1937
Assay: Cell panel screen (CellTiter-Glo)
Type: cell-based, human
Conditions: HCC1937 (Breast), 20 micromolar, 72 hrs
Method in brief: as §1

Row | SMILES | Percent Inhibition
6 | CC(C)=CCc1c2c(c3oc4c(O)c(O)ccc4c(=O)c3c1O)C=CC(C)(C)O2 [Compound C-6] | 21%

Tested on: CW-2
Assay: Cell panel screen (CellTiter-Glo)
Type: cell-based, human
Conditions: CW-2 (Colon), 20 micromolar, 72 hrs
Method in brief: as §1

Row | SMILES | Percent Inhibition
7 | CC(C)=CCc1c2c(c3oc4c(O)c(O)ccc4c(=O)c3c1O)C=CC(C)(C)O2 [Compound C-6] | 5%

Tested on: ZR-75-30
Assay: Cell panel screen (CellTiter-Glo)
Type: cell-based, human
Conditions: ZR-75-30 (Breast), 20 micromolar, 72 hrs
Method in brief: as §1

Row | SMILES | Percent Inhibition
8 | CC(C)=CCc1c2c(c3oc4c(O)c(O)ccc4c(=O)c3c1O)C=CC(C)(C)O2 [Compound C-6] | 64%

Tested on: Bel-7402
Assay: Cell panel screen (CellTiter-Glo)
Type: cell-based, human
Conditions: Bel-7402 (Liver), 20 micromolar, 72 hrs
Method in brief: as §1

Row | SMILES | Percent Inhibition
9 | CC(C)=CCc1c2c(c3oc4c(O)c(O)ccc4c(=O)c3c1O)C=CC(C)(C)O2 [Compound C-6] | 5%

Tested on: C3A
Assay: Cell panel screen (CellTiter-Glo)
Type: cell-based, human
Conditions: C3A (Liver), 20 micromolar, 72 hrs
Method in brief: as §1

Row | SMILES | Percent Inhibition
10 | CC(C)=CCc1c2c(c3oc4c(O)c(O)ccc4c(=O)c3c1O)C=CC(C)(C)O2 [Compound C-6] | 17%

Tested on: RL95
Assay: Cell panel screen (CellTiter-Glo)
Type: cell-based, human
Conditions: RL95 (Uterus), 20 micromolar, 72 hrs
Method in brief: as §1

Row | SMILES | Percent Inhibition
11 | CC(C)=CCc1c2c(c3oc4c(O)c(O)ccc4c(=O)c3c1O)C=CC(C)(C)O2 [Compound C-6] | 9%

Tested on: T47D
Assay: Cell panel screen (CellTiter-Glo)
Type: cell-based, human
Conditions: T47D (Breast), 20 micromolar, 72 hrs
Method in brief: as §1

Row | SMILES | Percent Inhibition
12 | CC(C)=CCc1c2c(c3oc4c(O)c(O)ccc4c(=O)c3c1O)C=CC(C)(C)O2 [Compound C-6] | 6%

Tested on: HCC1395
Assay: Cell panel screen (CellTiter-Glo)
Type: cell-based, human
Conditions: HCC1395 (Breast), 20 micromolar, 72 hrs
Method in brief: as §1

Row | SMILES | Percent Inhibition
13 | CC(C)=CCc1c2c(c3oc4c(O)c(O)ccc4c(=O)c3c1O)C=CC(C)(C)O2 [Compound C-6] | 14%

Tested on: MSTO-211-H
Assay: Cell panel screen (CellTiter-Glo)
Type: cell-based, human
Conditions: MSTO-211-H (Lung), 20 micromolar, 72 hrs
Method in brief: as §1

Row | SMILES | Percent Inhibition
14 | CC(C)=CCc1c2c(c3oc4c(O)c(O)ccc4c(=O)c3c1O)C=CC(C)(C)O2 [Compound C-6] | 1%

Tested on: C8166
Assay: Cell panel screen (CellTiter-Glo)
Type: cell-based, human
Conditions: C8166 (Leukemia), 20 micromolar, 72 hrs
Method in brief: as §1

Row | SMILES | Percent Inhibition
15 | CC(C)=CCc1c2c(c3oc4c(O)c(O)ccc4c(=O)c3c1O)C=CC(C)(C)O2 [Compound C-6] | 12%

Tested on: BT-549
Assay: Cell panel screen (CellTiter-Glo)
Type: cell-based, human
Conditions: BT-549 (Breast), 20 micromolar, 72 hrs
Method in brief: as §1

Row | SMILES | Percent Inhibition
16 | CC(C)=CCc1c2c(c3oc4c(O)c(O)ccc4c(=O)c3c1O)C=CC(C)(C)O2 [Compound C-6] | -6%

Tested on: NCI-H1694
Assay: Cell panel screen (CellTiter-Glo)
Type: cell-based, human
Conditions: NCI-H1694 (Lung), 20 micromolar, 72 hrs
Method in brief: as §1

Row | SMILES | Percent Inhibition
17 | CC(C)=CCc1c2c(c3oc4c(O)c(O)ccc4c(=O)c3c1O)C=CC(C)(C)O2 [Compound C-6] | 19%

Tested on: BT-474
Assay: Cell panel screen (CellTiter-Glo)
Type: cell-based, human
Conditions: BT-474 (Breast), 20 micromolar, 72 hrs
Method in brief: as §1

Row | SMILES | Percent Inhibition
18 | CC(C)=CCc1c2c(c3oc4c(O)c(O)ccc4c(=O)c3c1O)C=CC(C)(C)O2 [Compound C-6] | -18%

Tested on: HPAF-II
Assay: Cell panel screen (CellTiter-Glo)
Type: cell-based, human
Conditions: HPAF-II (Pancreas), 20 micromolar, 72 hrs
Method in brief: as §1

Row | SMILES | Percent Inhibition
19 | CC(C)=CCc1c2c(c3oc4c(O)c(O)ccc4c(=O)c3c1O)C=CC(C)(C)O2 [Compound C-6] | -10%

Tested on: HCC1599
Assay: Cell panel screen (CellTiter-Glo)
Type: cell-based, human
Conditions: HCC1599 (Breast), 20 micromolar, 72 hrs
Method in brief: as §1

Row | SMILES | Percent Inhibition
20 | CC(C)=CCc1c2c(c3oc4c(O)c(O)ccc4c(=O)c3c1O)C=CC(C)(C)O2 [Compound C-6] | 52%

Tested on: NCI-H1623
Assay: Cell panel screen (CellTiter-Glo)
Type: cell-based, human
Conditions: NCI-H1623 (Lung), 20 micromolar, 72 hrs
Method in brief: as §1

Row | SMILES | Percent Inhibition
21 | CC(C)=CCc1c2c(c3oc4c(O)c(O)ccc4c(=O)c3c1O)C=CC(C)(C)O2 [Compound C-6] | -13%

Tested on: Panc 03.27
Assay: Cell panel screen (CellTiter-Glo)
Type: cell-based, human
Conditions: Panc 03.27 (Pancreas), 20 micromolar, 72 hrs
Method in brief: as §1

Row | SMILES | Percent Inhibition
22 | CC(C)=CCc1c2c(c3oc4c(O)c(O)ccc4c(=O)c3c1O)C=CC(C)(C)O2 [Compound C-6] | 21%

Tested on: NCI-H524
Assay: Cell panel screen (CellTiter-Glo)
Type: cell-based, human
Conditions: NCI-H524 (Lung), 20 micromolar, 72 hrs
Method in brief: as §1

Row | SMILES | Percent Inhibition
23 | CC(C)=CCc1c2c(c3oc4c(O)c(O)ccc4c(=O)c3c1O)C=CC(C)(C)O2 [Compound C-6] | -61%

Tested on: NCI-H2347
Assay: Cell panel screen (CellTiter-Glo)
Type: cell-based, human
Conditions: NCI-H2347 (Lung), 20 micromolar, 72 hrs
Method in brief: as §1

Row | SMILES | Percent Inhibition
24 | CC(C)=CCc1c2c(c3oc4c(O)c(O)ccc4c(=O)c3c1O)C=CC(C)(C)O2 [Compound C-6] | 7%

Tested on: SW13
Assay: Cell panel screen (CellTiter-Glo)
Type: cell-based, human
Conditions: SW13 (Adrenal gland), 20 micromolar, 72 hrs
Method in brief: as §1

Row | SMILES | Percent Inhibition
25 | CC(C)=CCc1c2c(c3oc4c(O)c(O)ccc4c(=O)c3c1O)C=CC(C)(C)O2 [Compound C-6] | 1%

Tested on: TCCSUP
Assay: Cell panel screen (CellTiter-Glo)
Type: cell-based, human
Conditions: TCCSUP (Urinary bladder), 20 micromolar, 72 hrs
Method in brief: as §1

Row | SMILES | Percent Inhibition
26 | CC(C)=CCc1c2c(c3oc4c(O)c(O)ccc4c(=O)c3c1O)C=CC(C)(C)O2 [Compound C-6] | 11%

Tested on: HT-1197
Assay: Cell panel screen (CellTiter-Glo)
Type: cell-based, human
Conditions: HT-1197 (Urinary bladder), 20 micromolar, 72 hrs
Method in brief: as §1

Row | SMILES | Percent Inhibition
27 | CC(C)=CCc1c2c(c3oc4c(O)c(O)ccc4c(=O)c3c1O)C=CC(C)(C)O2 [Compound C-6] | 20%

Tested on: NCI-H2405
Assay: Cell panel screen (CellTiter-Glo)
Type: cell-based, human
Conditions: NCI-H2405 (Lung), 20 micromolar, 72 hrs
Method in brief: as §1

Row | SMILES | Percent Inhibition
28 | CC(C)=CCc1c2c(c3oc4c(O)c(O)ccc4c(=O)c3c1O)C=CC(C)(C)O2 [Compound C-6] | -5%

Tested on: M059J
Assay: Cell panel screen (CellTiter-Glo)
Type: cell-based, human
Conditions: M059J (Brain), 20 micromolar, 72 hrs
Method in brief: as §1

Row | SMILES | Percent Inhibition
29 | CC(C)=CCc1c2c(c3oc4c(O)c(O)ccc4c(=O)c3c1O)C=CC(C)(C)O2 [Compound C-6] | -21%

Tested on: HGC-27
Assay: Cell panel screen (CellTiter-Glo)
Type: cell-based, human
Conditions: HGC-27 (Stomach), 20 micromolar, 72 hrs
Method in brief: as §1

Row | SMILES | Percent Inhibition
30 | CC(C)=CCc1c2c(c3oc4c(O)c(O)ccc4c(=O)c3c1O)C=CC(C)(C)O2 [Compound C-6] | 18%

Tested on: Colo 205
Assay: Cell panel screen (CellTiter-Glo)
Type: cell-based, human
Conditions: Colo 205, 20 micromolar, 72 hrs
Method in brief: as §1

Row | SMILES | Percent Inhibition
31 | CC(C)=CCc1c2c(c3oc4c(O)c(O)ccc4c(=O)c3c1O)C=CC(C)(C)O2 [Compound C-6] | 3%

Tested on: HCC1569
Assay: Cell panel screen (CellTiter-Glo)
Type: cell-based, human
Conditions: HCC1569 (Breast), 20 micromolar, 72 hrs
Method in brief: as §1

Row | SMILES | Percent Inhibition
32 | CC(C)=CCc1c2c(c3oc4c(O)c(O)ccc4c(=O)c3c1O)C=CC(C)(C)O2 [Compound C-6] | 7%

Tested on: A704
Assay: Cell panel screen (CellTiter-Glo)
Type: cell-based, human
Conditions: A704 (Kidney), 20 micromolar, 72 hrs
Method in brief: as §1

Row | SMILES | Percent Inhibition
33 | CC(C)=CCc1c2c(c3oc4c(O)c(O)ccc4c(=O)c3c1O)C=CC(C)(C)O2 [Compound C-6] | -8%

Tested on: CCF-STTG1
Assay: Cell panel screen (CellTiter-Glo)
Type: cell-based, human
Conditions: CCF-STTG1 (Brain), 20 micromolar, 72 hrs
Method in brief: as §1

Row | SMILES | Percent Inhibition
34 | CC(C)=CCc1c2c(c3oc4c(O)c(O)ccc4c(=O)c3c1O)C=CC(C)(C)O2 [Compound C-6] | 16%

Tested on: NCI-H28
Assay: Cell panel screen (CellTiter-Glo)
Type: cell-based, human
Conditions: NCI-H28 (Lung), 20 micromolar, 72 hrs
Method in brief: as §1

Row | SMILES | Percent Inhibition
35 | CC(C)=CCc1c2c(c3oc4c(O)c(O)ccc4c(=O)c3c1O)C=CC(C)(C)O2 [Compound C-6] | 12%

Tested on: NCI-H1770
Assay: Cell panel screen (CellTiter-Glo)
Type: cell-based, human
Conditions: NCI-H1770 (Lung), 20 micromolar, 72 hrs
Method in brief: as §1

Row | SMILES | Percent Inhibition
36 | CC(C)=CCc1c2c(c3oc4c(O)c(O)ccc4c(=O)c3c1O)C=CC(C)(C)O2 [Compound C-6] | 5%
